Test results reported in patent publication US9586931B2 (Merck Sharp & Dohme Corp., priority 2012, dated 2017).

Each molecule was assayed against T1, recombinant human GST-Syk (Homo sapiens, UniProt P43405) (assay: Homogeneous Time-Resolved Fluorescence (HTRF) assay for the recombinant human Syk enzyme). Conditions: recombinant human GST-Syk 5 pM, ATP 25 μM, 10-dose titration 10 μM to 0.508 nM; read-out: rhSYK Activity IC50.
T1 construct: purchased Carna Biosciences 08-176
Type: biochemical
In short: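 Detection used time-resolved fluorescence 30 min after adding a quench mix (40 mM EDTA, 15 mM Tris pH 7.5, 0.01% Tween 20) containing 2 nM Europium anti-pTyr antibody and 70 nM streptavidin-APC. This followed 45 min of room-temperature peptide phosphorylation by recombinant GST-tagged human Syk.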

IC50 [nM]	Compound
28.3	COc1ccnc(Nc2cc(C)cc(-c3cn(CC(C)(O)C(C)(C)O)nn3)c2)n1 (stereo not shown) [Example 21.12, 1-(4-{3-[(4-methoxypyrimidin-2-yl)amino]-5-methylphenyl}-1H-1,2,3-triazol-1-yl)-2,3-dimethylbutane-2,3-diol]
29.4	Cc1cc(Nc2nccc(C(F)(F)F)n2)cc(-c2cn(CC(O)C(=O)O)nn2)c1 (racemic) [Example 5.61, 2-hydroxy-3-[4-(3-methyl-5-{[4-(trifluoromethyl)pyrimidin-2-yl]amino}phenyl)-1H-1,2,3-triazol-1-yl]propanoic acid]
69.5	Cc1cc(Nc2nccc(C)n2)cc(-c2cn(C3CCCCC3O)nn2)c1 (single isomer, unassigned) [Example 7.21, 2-(4-{3-methyl-5-[(4-methylpyrimidin-2-yl)amino]phenyl}-1H-1,2,3-triazol-1-yl)cyclohexanol]
8	Cc1cc(Nc2nccc(C(F)F)n2)cc(-c2cn(C(C)C(C)(O)CO)nn2)c1 (single isomer, unassigned) [Example 30.3, 3-(4-(3-((4-(Difluoromethyl)pyrimidin-2-yl)amino)-5-methylphenyl)-1H-1,2,3-triazol-1-yl)-2-methylbutane-1,2-diol]
9.9	Cc1cc(Nc2ncc(F)c(C(F)F)n2)cc(-c2cn(CC3OC(=O)NC34CC4)nn2)c1 (single isomer, unassigned) [Example 7.34, 7-{[4-(3-{[4-(difluoromethyl)-5-fluoropyrimidin-2-yl]amino}-5-methylphenyl)-1H-1,2,3-triazol-1-yl]methyl}-6-oxa-4-azaspiro[2.4]heptan-5-one]
8.4	Cc1cc(Nc2cc(C(F)F)ccn2)nc(-c2cn(CC3(C)CNC(=O)O3)nn2)c1 (single isomer, unassigned) [Example 7.9, 5-((4-(6-((4-(difluoromethyl)pyridin-2-yl)amino)-4-methylpyridin-2-yl)-1H-1,2,3-triazol-1-yl)methyl)-5-methyloxazolidin-2-one]
9.9	Cc1cc(Nc2ncc(F)c(C(F)F)n2)cc(-c2cn(C3CCCCC3O)nn2)c1 (single isomer, unassigned) [Example 7.30, 2-[4-(3-{[4-(difluoromethyl)-5-fluoropyrimidin-2-yl]amino}-5-methylphenyl)-1H-1,2,3-triazol-1-yl]cyclohexanol]
187	Cc1cc(Nc2nccc(C(F)(F)F)n2)cc(-c2cn(CCN)nn2)c1 [Example 5.74, N-{3-[1-(2-aminoethyl)-1H-1,2,3-triazol-4-yl]-5-methylphenyl}-4-(trifluoromethyl)pyrimidin-2-amine]
14.9	Cc1cc(Nc2nccc(C(F)(F)F)n2)cc(-c2cn(CCO)nn2)c1 [Example 5.1, 2-(4-(3-Methyl-5-((4-(trifluoromethyl)pyrimidin-2-yl)amino)phenyl)-1H-1,2,3-triazol-1-yl)ethanol]
14.3	Cc1cc(Nc2ncc(F)c(C(F)F)n2)cc(-c2cn(C3CCCCC3O)nn2)c1 (single isomer, unassigned) [Example 7.29, 2-[4-(3-{[4-(difluoromethyl)-5-fluoropyrimidin-2-yl]amino}-5-methylphenyl)-1H-1,2,3-triazol-1-yl]cyclohexanol]
13.2	Cc1cc(Nc2nccc(C(F)(F)F)n2)cc(-c2cn(CC(C)(O)C(C)(C)O)nn2)c1 (stereo not shown) [Example 21.28, 2,3-dimethyl-1-[4-(3-methyl-5-{[4-(trifluoromethyl)pyrimidin-2-yl]amino}phenyl)-1H-1,2,3-triazol-1-yl]butane-2,3-diol]
27.9	COc1ccnc(Nc2cc(C)cc(-c3cn(CC(C)(O)C(C)(C)O)nn3)c2)n1 (stereo not shown) [Example 21.23, 1-(4-{3-[(4-methoxypyrimidin-2-yl)amino]-5-methylphenyl}-1H-1,2,3-triazol-1-yl)-2,3-dimethylbutane-2,3-diol]
41.8	Cc1cc(Nc2nccc(C(F)(F)F)n2)cc(-c2cn(CCC(=O)O)nn2)c1 [Example 5.60, 3-[4-(3-methyl-5-{[4-(trifluoromethyl)pyrimidin-2-yl]amino}phenyl)-1H-1,2,3-triazol-1-yl]propanoic acid]
53.1	Cc1cc(Nc2nccc(C(F)(F)F)n2)cc(-n2cc(CC(O)CO)nn2)c1 (stereo not shown) [Example 15.7, 3-[1-(3-methyl-5-{[4-(trifluoromethyl)pyrimidin-2-yl]amino}phenyl)-1H-1,2,3-triazol-4-yl]propane-1,2-diol]

Further lines, the molecule ahead of its results:

Compound	IC50 [nM]
Cc1cc(Nc2cc(C(F)(F)F)ccn2)nc(-c2cn(C(C)c3ccc(C(N)=O)cc3)nn2)c1 (stereo not shown) [Example 1.16, 4-{1-[4-(4-methyl-6-{[4-(trifluoromethyl)pyridin-2-yl]amino}pyridin-2-yl)-1H-1,2,3-triazol-1-yl]ethyl}benzamide]	13.3
Cc1cc(Nc2cc(C(F)(F)F)ccn2)nc(-c2cn(CC(O)Cn3cccn3)nn2)c1 (stereo not shown) [Example 4.28, 1-[4-(4-methyl-6-{[4-(trifluoromethyl)pyridin-2-yl]amino}pyridin-2-yl)-1H-1,2,3-triazol-1-yl]-3-(1H-pyrazol-1-yl)propan-2-ol]	6.6
CC(O)(CO)Cn1cc(-c2cccc(Nc3nccc(C(F)(F)F)n3)c2)nn1 (single isomer, unassigned) [Example 21.6, 2-methyl-3-[4-(3-{[4-(trifluoromethyl)pyrimidin-2-yl]amino}phenyl)-1H-1,2,3-triazol-1-yl]propane-1,2-diol]	44.6
Cc1cc(Nc2cc(C(F)(F)F)ccn2)nc(-c2cn(C3CCC(C(=O)O)c4ccccc43)nn2)c1 (stereo not shown) [Example 3.19, 4-[4-(4-methyl-6-{[4-(trifluoromethyl)pyridin-2-yl]amino}pyridin-2-yl)-1H-1,2,3-triazol-1-yl]-1,2,3,4-tetrahydronaphthalene-1-carboxylic acid]	16
COC(=O)C(C)CCn1cc(-c2cc(C)cc(Nc3cc(C(F)(F)F)ccn3)n2)nn1 (racemic) [Example 5.85, methyl 2-methyl-4-[4-(4-methyl-6-{[4-(trifluoromethyl)pyridin-2-yl]amino}pyridin-2-yl)-1H-1,2,3-triazol-1-yl]butanoate]	80
Cc1cc(Nc2cc(C(F)(F)F)ccn2)nc(-c2cn(CC#N)nn2)c1 [Example 5.92, [4-(4-methyl-6-{[4-(trifluoromethyl)pyridin-2-yl]amino}pyridin-2-yl)-1H-1,2,3-triazol-1-yl]acetonitrile]	22
Cc1cc(Nc2cc(C(F)(F)F)ccn2)nc(-c2cn(C3CCCCC(O)C3O)nn2)c1 (single isomer, unassigned) [Example 10.3, 3-[4-(4-methyl-6-{[4-(trifluoromethyl)pyridin-2-yl]amino}pyridin-2-yl)-1H-1,2,3-triazol-1-yl]cycloheptane-1,2-diol]	1
Cc1cc(Nc2cc(C(F)(F)F)ccn2)nc(-c2cn([C@H](C)C(=O)O)nn2)c1 [Example 5.29, (2R)-2-[4-(4-methyl-6-{[4-(trifluoromethyl)pyridin-2-yl]amino}pyridin-2-yl)-1H-1,2,3-triazol-1-yl]propanoic acid]	166
Cc1cc(Nc2cc(C(F)(F)F)ccn2)nc(-c2cn(CC(C)(O)C(=O)O)nn2)c1 (stereo not shown) [Example 4.18, 2-hydroxy-2-methyl-3-[4-(4-methyl-6-{[4-(trifluoromethyl)pyridin-2-yl]amino}pyridin-2-yl)-1H-1,2,3-triazol-1-yl]propanoic acid]	26.6
Cc1cc(Nc2cc(C(F)(F)F)ccn2)nc(-c2cn(Cc3cc[nH]n3)nn2)c1 [Example 5.111, 4-methyl-6-[1-(1H-pyrazol-3-ylmethyl)-1H-1,2,3-triazol-4-yl]-N-[4-(trifluoromethyl)pyridin-2-yl]pyridin-2-amine]	2.2
Cc1cc(Nc2cc(C(F)(F)F)ccn2)nc(-c2cn(C3CS(=O)(=O)CC3O)nn2)c1 (stereo not shown) [Example 5.90, 4-[4-(4-methyl-6-{[4-(trifluoromethyl)pyridin-2-yl]amino}pyridin-2-yl)-1H-1,2,3-triazol-1-yl]tetrahydrothiophene-3-ol 1,1-dioxide]	11.5
Cc1cc(Nc2cc(C(F)(F)F)ccn2)nc(-c2cn(C3CNCC3O)nn2)c1 (racemic) [Example 19.1, (+/−)-(3S,4R)-4-(4-(4-Methyl-6-((4-(trifluoromethyl)pyridin-2-yl)amino)pyridin-2-yl)-1H-1,2,3-triazol-1-yl)pyrrolidin-3-ol]	32.3
Cc1cc(Nc2cc(C(C)(C)C)ccn2)nc(-c2cn(C(C)c3ccc(C(=O)O)cc3)nn2)c1 (stereo not shown) [Example 2.12, 4-[1-(4-{6-[(4-tert-butylpyridin-2-yl)amino]-4-methylpyridin-2-yl}-1H-1,2,3-triazol-1-yl)ethyl]benzoic acid]	5.5
Cc1cc(Nc2cc(C(F)(F)F)ccn2)nc(-c2cn([C@H](C)C(=O)N3CCC[C@H]3C(N)=O)nn2)c1 [Example 1.19, 1-{(2R)-2-[4-(4-methyl-6-{[4-(trifluoromethyl)pyridin-2-yl]amino}pyridin-2-yl)-1H-1,2,3-triazol-1-yl]propanoyl}prolinamide]	123
Cc1cc(Nc2cc(C(F)F)ccn2)nc(-c2cn(C3CCCC(O)C3O)nn2)c1 (stereo not shown) [Example 21.37, 3-(4-(6-((4-(difluoromethyl)pyridin-2-yl)amino)-4-methylpyridin-2-yl)-1H-1,2,3-triazol-1-yl)cyclohexane-1,2-diol]	1.9
Cc1cc(Nc2cc(C(F)(F)F)ccn2)nc(-c2cn(C(C)C(=O)N3CCN(Cc4ccccc4)C(c4ccccc4)C3)nn2)c1 (stereo not shown) [Example 1.50, 6-{1-[2-(4-benzyl-3-phenylpiperazin-1-yl)-1-methyl-2-oxoethyl]-1H-1,2,3-triazol-4-yl}-4-methyl-N-[4-(trifluoromethyl)pyridin-2-yl]pyridin-2-amine]	570
Cc1cc(Nc2cc(C(F)(F)F)ccn2)nc(-c2cn(CCOC(N)=O)nn2)c1 [Example 5.110, 2-[4-(4-methyl-6-{[4-(trifluoromethyl)pyridin-2-yl]amino}pyridin-2-yl)-1H-1,2,3-triazol-1-yl]ethyl carbamate]	6.2
